Results on one compound are retold here after publication PMC9388906, “Dual inhibition of the Echinococcus multilocularis energy metabolism” (Frontiers in Veterinary Science, 2022).

The term IC50 denotes the concentration needed to halve the response being measured. For orientation: EC50 means the concentration that produces a half-maximal response.

Molecules are shown by their SMILES. Where two headings read alike, the source gives them in different places.

The subject of data set [1] is Reuber rat hepatoma (Rh) cells. Put plainly: Mammalian cell toxicity, Alamar Blue assay. The format is cell-based. Conditions: Alamar blue, 5 days, range tested 30–0.23 μM, mean (SD) of two tests. As for the experimental part:
Compounds were added in a serial dilution (30–0.23 μM, 1:2 dilution steps) and in triplicates. Plates were incubated at 37°C, 5% CO2 and humid atmosphere for 5 days. Resazurin was added to a final concentration of 10 mg/L to each well, and fluorescence measured at 530 nm on an Enspire multilabel plate reader over 3 h. By using Microsoft Office Excel 2010 and a logit-log transformation of the relative growth, IC50 values were calculated. The test was performed twice for each compound, and respective averages and standard deviations are given.
(In general: Alamar Blue is a resazurin reagent that responds to reducing activity.)

Data set [2] has as its system E. multilocularis GL cells (isolate H95). The data set can be described thus: GL cell viability assay (CellTiter-Glo), isolate H95. Conditions: isolate H95; 0.1 μM; 5 days; nitrogen atmosphere; mean (SD); active if <30%. Format: cell-based, Echinococcus multilocularis. As for the experimental part: (§1) To assess the in vitro efficacy of ELQs against E. multilocularis, (a) the damage-marker phosphoglucose isomerase (PGI) assay was applied against metacestodes, and (b) the germinal layer (GL) cell viability assay was applied to measure effects on isolated GL cells. Both assays are described in more detail below. The drug testing strategy was as follows: PGI assay was first conducted for overview screening at 10 μM with the parasite isolates H95 and Sval. The GL cell viability assay was performed at 0.1 μM with both isolates H95 and Sval.
(§2) The isolation of E. multilocularis GL cells was done as described previously ([17]) with minor modifications. Fifteen units of GL cells were distributed to each well of a 384 well plate in a total volume of 12.5 μL conditioned medium. The different ELQs were added to the wells to 0.1 μM, in quadruplicates. As a negative control 0.1% DMSO was used. The 384-well plate was incubated for 5 days at 37°C under humid nitrogen atmosphere. Thereafter, viability of the GL cells under different drug treatments was assessed by CellTiter-Glo® (Promega AG, Dübendorf, Switzerland). The CellTiter-Glo reagent was complemented with 1% Tx-100. The luciferase bioluminescence was measured at 530 nm by using the Enspire multilabel reader (PerkinElmer Life Sciences, Schwerzenbach, Switzerland). Using Microsoft Excel, the blank values were subtracted from the experimental values and the relative viability compared to DMSO was calculated. Viabilities were calculated as mean values and standard deviations for each quadruplicate.

Data set [3] concerns E. multilocularis metacestodes (isolate H95). Put plainly: PGI assay (damage marker release), metacestodes, isolate H95. Format: cell-based, Echinococcus multilocularis. The note with it: isolate H95, 5 days. As for the experimental part: as §1
(§3) The PGI assay measures the amount of PGI that metacestodes release into the medium when damaged ([17], [32]). The purification and in vitro drug incubation of E. multilocularis metacestodes was conducted according to Stadelmann et al. ([32]). In short, cultures were applied for in vitro drug testing at the age of 6-8 weeks. E. multilocularis metacestodes were therefore purified by the addition of 2% saccharose and washed extensively with PBS. Purified metacestodes were suspended 1:3 with DMEM (without phenol red, supplemented with 100 U/mL penicillin, 100 μg/mL streptomycin) and distributed in 48-well plates (1 mL/well, thus 300 μL pure metacestode vesicles per well). […] The corresponding DMSO concentration was used as negative control and Tx-100 (0.1% final concentration) was used for total damage (positive control). […] After 5 days, relative PGI activities were measured and calculated as percentage of the Tx-100 control as described previously in Rufener et al. ([17]). They were calculated as mean values and standard deviations for each triplicate. […] EC50 measurements were performed twice, and averages and standard deviations of these repeated tests are given.

Data set [4] concerns E. multilocularis metacestodes. The data set can be described thus: PGI assay, single and combination treatment under normoxic and anaerobic conditions. Format: cell-based, Echinococcus multilocularis. Conditions: 5 days. On the procedure:
The PGI assay measures the amount of PGI that metacestodes release into the medium when damaged ([17], [32]). The purification and in vitro drug incubation of E. multilocularis metacestodes was conducted according to Stadelmann et al. ([32]). In short, cultures were applied for in vitro drug testing at the age of 6-8 weeks. E. multilocularis metacestodes were therefore purified by the addition of 2% saccharose and washed extensively with PBS. Purified metacestodes were suspended 1:3 with DMEM (without phenol red, supplemented with 100 U/mL penicillin, 100 μg/mL streptomycin) and distributed in 48-well plates (1 mL/well, thus 300 μL pure metacestode vesicles per well). […] The corresponding DMSO concentration was used as negative control and Tx-100 (0.1% final concentration) was used for total damage (positive control). […] After 5 days, relative PGI activities were measured and calculated as percentage of the Tx-100 control as described previously in Rufener et al. ([17]). They were calculated as mean values and standard deviations for each triplicate. EC50 calculations were calculated based on logit-log transformed values in Microsoft Office Excel 2010. EC50 measurements were performed twice, and averages and standard deviations of these repeated tests are given.
For double inhibition of the mitochondrial energy pathways of E. multilocularis, quinazoline as an inhibitor of the anaerobic MD ([29]) was applied in combination with ELQ-400 as an inhibitor of the ETC. Both compounds were tested either alone or in combination at 10 μM with the above-described PGI assay for 5 days for their activity against E. multilocularis metacestodes. PGI assays were done in triplicates and two times independently. […] Results of the assays were calculated as mean values and standard deviations for each biological triplicate were calculated as relative percentage to the Tx-100 control. To assess direct effects on the MD, succinate levels were measured in the supernatants of the PGI assay, as described below. […]

Data set [5] deals with E. multilocularis GL cells (isolate Sval). Put plainly: GL cell viability assay (CellTiter-Glo), isolate Sval. The format is cell-based, Echinococcus multilocularis. The note with it: isolate Sval; 0.1 μM; 5 days; nitrogen atmosphere; mean (SD); active if <30%. As for the experimental part: as §1, §2
On the technique in general: In ATP-based viability assays light output follows the ATP content of the culture.

In data set [6] the test system is E. multilocularis metacestodes. The data set can be described thus: Succinate concentrations in culture supernatants (malate dismutation activity). Format: cell-based, Echinococcus multilocularis. The note with it: 10 μM, 5 days.
Description: Both compounds were tested either alone or in combination at 10 μM with the above-described PGI assay for 5 days for their activity against E. multilocularis metacestodes. PGI assays were done in triplicates and two times independently. […] To assess direct effects on the MD, succinate levels were measured in the supernatants of the PGI assay, as described below. To determine whether differences between groups were significant, data was subjected to student's t-test analysis and P-values below 0.05 are given.
Succinate measurements in supernatants of drug-treated E. multilocularis metacestodes was performed with the “Succinic Acid Assay Kit” (Megazyme, Bray, Ireland). […] 20 μL of each diluted (1:20) sample or standard was used in triplicate for succinate measurements in 96-well plates (flat bottom, Greiner Bio-One GmbH, Frickenhausen, Germany). The reaction mix buffer was prepared as described in the supplier manual: per well 180 μL H2O, 20 μL solvent 1 (buffer, pH 8.4, sodium azide 0.02% w/v), 20 μL solvent 2 (NADH plus stabilizer), 20 μL solvent 3 (ATP, PEP, and CoA) and 2 μL solvent 4 (pyruvate kinase plus L-lactate dehydrogenase suspension) were added. After a 180 s pre-incubation time, a first measurement at 340 nm was done on an EnSpire multilabel plate reader (PerkinElmer Life Sciences, Schwerzenbach, Switzerland). 10 μL solvent 5 (succinyl-CoA synthetase suspension; 1:10 diluted) were then added to each well and the plate was read at 340 nm for 1 h every minute. […] Succinate levels are shown as mean values with standard deviations of biological triplicates. To determine whether differences between groups were significant, data was subjected to student's t-test analysis and P-values below 0.05 are given.
For data set [7], the system named is E. multilocularis metacestodes (isolate Sval). Put plainly: PGI assay (damage marker release), metacestodes, isolate Sval. The format is cell-based, Echinococcus multilocularis. Conditions: isolate Sval, 10 μM. On the procedure:
as §1, §3

As for `Cc1[nH]c2cc(F)cc(F)c2c(=O)c1-c1ccc(Oc2ccc(OC(F)(F)F)cc2)cc1` [ELQ-400], the IC50 in data set [1] (confluent Rh cells, read-out: IC50 Rh confluent) is greater than 30000 nM; in data set [1] (preconfluent Rh cells, read-out: IC50 Rh preconfluent), 1460 nM. Also, the “GL cells, viability via ATP measurements, relative to DMSO control” value was 8.4 (4.8) % in data set [2] and 14.6 (8.6) % in data set [5]. Also, the “Metacestodes, PGI assay, relative to positive control Tx-100” value in data set [3] (10 μM, normoxic, mean (SD) of triplicates, active if >20%) is on record as 21.4 (2.5) %; in data set [7] (5 days, normoxic, mean (SD) of triplicates, active if >20%), 27 (10.5) %. Besides, the EC50 in data set [3] (PGI assay, range tested 30–0.12 μM, mean (SD) of two tests, read-out: EC50 metacestodes) is 1060 nM. For the same compound, the “PGI release of metacestodes relative to Tx-100” value was “significantly reduced” in data set [4] (10 μM each, anaerobic (0% O2)) and “active” in data set [4] (10 μM, normoxic (21% O2)). For the same compound, the “Release of succinate by metacestodes compared to DMSO control” value in data set [6] (anaerobic) and in data set [6] (normoxic) was “significantly enhanced” throughout. Moreover, the “Activity in PGI assay (activity call)” value in data set [7] (threshold >20% of Tx-100) was “activity”.
